# Values of other authors as cited in patent US20260335397A1, “TREATMENT OF GEOGRAPHIC ATROPHY” (Apellis Pharmaceuticals, Inc., priority 2022, published 2026).
# Where a SMILES comes first, the peptide text is derived from it. Bridges are numbered along the chain shown (N, C = ends). [ ]: non-standard residue; d: D form. Abu = CC[C@H](N)C(=O)O
# System: complement activation
# Details: relative to compstatin (C-terminally amidated); published data; cited from earlier work
row,SMILES,Activity over compstatin
1,CC[C@H](C)[C@H](NC(C)=O)C(=O)N[C@H]1CSSC[C@@H](C(=O)N[C@H](C(N)=O)[C@@H](C)O)NC(=O)[C@H](CCCNC(=N)N)NC(=O)[C@H](Cc2c[nH]cn2)NC(=O)[C@H](C)NC(=O)CNC(=O)[C@H](Cc2c[nH]c3ccccc23)NC(=O)[C@H](CC(=O)O)NC(=O)[C@H](CCC(N)=O)NC(=O)[C@H](C2Cc3ccccc3C2)NC(=O)[C@H](C(C)C)NC1=O [Ac-V42Igl/H9A],39xmore
2,CC[C@H](C)[C@H](NC(C)=O)C(=O)N[C@H]1CSSC[C@@H](C(=O)N[C@H](C(N)=O)[C@@H](C)O)NC(=O)[C@H](CCCNC(=N)N)NC(=O)[C@H](Cc2c[nH]cn2)NC(=O)[C@H](C)NC(=O)CNC(=O)[C@H](Cc2c[nH]c3ccccc23)NC(=O)[C@H](CC(=O)O)NC(=O)[C@H](CCC(N)=O)NC(=O)[C@H](Cc2c[nH]c3ccc(F)cc23)NC(=O)[C@H](C(C)C)NC1=O [Ac-V4(5fW)/H9A],31xmore
3,CC[C@H](C)[C@H](NC(C)=O)C(=O)N[C@H]1CSSC[C@@H](C(=O)N[C@H](C(N)=O)[C@@H](C)O)NC(=O)[C@H](CCCNC(=N)N)NC(=O)[C@H](Cc2c[nH]cn2)NC(=O)[C@H](Cc2c[nH]cn2)NC(=O)CNC(=O)[C@H](Cc2c[nH]c3ccccc23)NC(=O)[C@H](CC(=O)O)NC(=O)[C@H](CCC(N)=O)NC(=O)[C@H](C(C)C)NC(=O)[C@H](C(C)C)NC1=O [Ac-compstatin],3xmore
4,CC[C@H](C)[C@H](NC(C)=O)C(=O)N[C@H]1CSSC[C@@H](C(=O)N[C@H](C(N)=O)[C@@H](C)O)NC(=O)[C@H](CCCNC(=N)N)NC(=O)[C@H](Cc2c[nH]cn2)NC(=O)[C@H](C)NC(=O)CNC(=O)[C@H](Cc2c[nH]c3ccc(F)cc23)NC(=O)[C@H](CC(=O)O)NC(=O)[C@H](CCC(N)=O)NC(=O)[C@H](Cc2cn(C)c3ccccc23)NC(=O)[C@H](C(C)C)NC1=O [Ac-V4(1MeW)/W7(5fW)/H9A],264xmore
5,CC[C@H](C)[C@H](NC(C)=O)C(=O)N[C@H]1CSSC[C@@H](C(=O)N[C@@H](C(=O)O)[C@H](C)O)NC(=O)[C@H](CCCNC(=N)N)NC(=O)[C@H](Cc2c[nH]cn2)NC(=O)[C@H](C)NC(=O)CNC(=O)[C@H](Cc2c[nH]c3ccccc23)NC(=O)[C@H](CC(=O)O)NC(=O)[C@H](CCC(N)=O)NC(=O)[C@H](Cc2c[nH]c3ccccc23)NC(=O)[C@H](C(C)C)NC1=O [Ac-V4W/H9A/T13dT-OH],55xmore
6,CC[C@H](C)[C@H](NC(C)=O)C(=O)N[C@H]1CSSC[C@@H](C(=O)N[C@H](C(N)=O)[C@@H](C)O)NC(=O)[C@H](CCCNC(=N)N)NC(=O)[C@H](Cc2c[nH]cn2)NC(=O)[C@H](C)NC(=O)CNC(=O)[C@H](Cc2c[nH]c3ccccc23)NC(=O)[C@H](CC(=O)O)NC(=O)[C@H](CCC(N)=O)NC(=O)[C@H](Cc2c[nH]c3ccc(C)cc23)NC(=O)[C@H](C(C)C)NC1=O [Ac-V4(5-MeW)/H9A],67xmore
7,CC[C@H](C)[C@H](NC(C)=O)C(=O)N[C@H]1CSSC[C@@H](C(=O)N[C@H](C(N)=O)[C@@H](C)O)NC(=O)[C@H](CCCNC(=N)N)NC(=O)[C@H](Cc2c[nH]cn2)NC(=O)[C@H](C)NC(=O)CNC(=O)[C@H](Cc2c[nH]c3ccccc23)NC(=O)[C@H](CC(=O)O)NC(=O)[C@H](CCC(N)=O)NC(=O)[C@H](Cc2c[nH]c3ccccc23)NC(=O)[C@H](C(C)C)NC1=O [Ac-V4W/H9A],45xmore
8,CC[C@H](C)[C@H](NC(C)=O)C(=O)N[C@H]1CSSC[C@@H](C(=O)N[C@H](C(N)=O)[C@@H](C)O)NC(=O)[C@H](CCCNC(=N)N)NC(=O)[C@H](Cc2c[nH]cn2)NC(=O)[C@H](C)NC(=O)CNC(=O)[C@H](Cc2c[nH]c3ccccc23)NC(=O)[C@H](CC(=O)O)NC(=O)[C@H](CCC(N)=O)NC(=O)[C@H](Cc2csc3ccccc23)NC(=O)[C@H](C(C)C)NC1=O [Ac-V4(Bta)/H9A],64xmore
9,CC[C@H](C)[C@H](NC(C)=O)C(=O)N[C@H]1CSSC[C@@H](C(=O)N[C@H](C(=O)O)[C@@H](C)O)NC(=O)[C@H](CCCNC(=N)N)NC(=O)[C@H](Cc2c[nH]cn2)NC(=O)[C@H](C)NC(=O)CNC(=O)[C@H](Cc2c[nH]c3ccccc23)NC(=O)[C@H](CC(=O)O)NC(=O)[C@H](CCC(N)=O)NC(=O)[C@H](Cc2csc3ccccc23)NC(=O)[C@H](C(C)C)NC1=O [Ac-V4(Bta)/H9A-OH],65xmore
10,CC[C@H](C)[C@H](NC(C)=O)C(=O)N[C@H]1CSSC[C@@H](C(=O)N[C@H](C(N)=O)[C@@H](C)O)NC(=O)[C@H](CCCNC(=N)N)NC(=O)[C@H](Cc2c[nH]cn2)NC(=O)[C@H](C)NC(=O)CNC(=O)[C@H](Cc2c[nH]c3ccccc23)NC(=O)[C@H](CC(=O)O)NC(=O)[C@H](CCC(N)=O)NC(=O)[C@H](Cc2ccc3ccccc3c2)NC(=O)[C@H](C(C)C)NC1=O [Ac-V4(2-Nal)/H9A],99xmore
11,CC[C@H](C)[C@H](NC(C)=O)C(=O)N[C@H]1CSSC[C@@H](C(=O)N[C@H](C(N)=O)[C@@H](C)O)NC(=O)[C@H](CCCNC(=N)N)NC(=O)[C@H](Cc2c[nH]cn2)NC(=O)[C@H](C)NC(=O)CNC(=O)[C@H](Cc2c[nH]c3ccc(F)cc23)NC(=O)[C@H](CC(=O)O)NC(=O)[C@H](CCC(N)=O)NC(=O)[C@H](Cc2c[nH]c3ccccc23)NC(=O)[C@H](C(C)C)NC1=O [Ac-V4W/W7(5fW)/H9A],121xmore
12,CC[C@@H]1NC(=O)CNC(=O)[C@H](Cc2c[nH]c3ccccc23)NC(=O)[C@H](CC(=O)O)NC(=O)[C@H](CCC(N)=O)NC(=O)[C@H](Cc2c[nH]c3ccccc23)NC(=O)[C@H](C(C)C)NC(=O)[C@@H](NC(=O)[C@@H](NC(C)=O)[C@@H](C)CC)CSSC[C@@H](C(=O)N[C@H](C(N)=O)[C@@H](C)O)NC(=O)[C@H](CCCNC(=N)N)NC(=O)[C@H](Cc2c[nH]cn2)NC1=O [Ac-V4W/H9(2-Abu)] (Ac-ICVWQDWG[Abu]HRCT-NH2; disulfide 2-12),64xmore
13,CC[C@H](C)[C@H](NC(C)=O)C(=O)N[C@H]1CSSC[C@@H](C(=O)N[C@H](C(=O)O)[C@@H](C)O)NC(=O)[C@H](CCCNC(=N)N)NC(=O)[C@H](Cc2c[nH]cn2)NC(=O)[C@H](C)NC(=O)CNC(=O)[C@H](Cc2c[nH]c3ccccc23)NC(=O)[C@H](CC(=O)O)NC(=O)[C@H](CCC(N)=O)NC(=O)[C@H](Cc2ccc3ccccc3c2)NC(=O)[C@H](C(C)C)NC1=O [Ac V4(2-Nal)/H9A-OH],38xmore
14,CC[C@H](C)[C@H](NC(C)=O)C(=O)N[C@H]1CSSC[C@@H](C(=O)N[C@H](C(N)=O)[C@@H](C)O)NC(=O)[C@H](CCCNC(=N)N)NC(=O)[C@H](Cc2c[nH]cn2)NC(=O)[C@H](C)NC(=O)CNC(=O)[C@H](Cc2c[nH]c3ccccc23)NC(=O)[C@H](CC(=O)O)NC(=O)[C@H](CCC(N)=O)NC(=O)[C@H](Cc2ccc(C(=O)c3ccccc3)cc2)NC(=O)[C@H](C(C)C)NC1=O [Ac-V4(Bpa)/H9A],86xmore
15,CC[C@H](C)[C@H](NC(C)=O)C(=O)N[C@H]1CSSC[C@@H](C(=O)N[C@H](C(=O)O)[C@@H](C)O)NC(=O)[C@H](CCCNC(=N)N)NC(=O)[C@H](Cc2c[nH]cn2)NC(=O)[C@H](C)NC(=O)CNC(=O)[C@H](Cc2c[nH]c3ccccc23)NC(=O)[C@H](CC(=O)O)NC(=O)[C@H](CCC(N)=O)NC(=O)[C@H](Cc2cccc3ccccc23)NC(=O)[C@H](C(C)C)NC1=O [Ac V4(1-Nal)/H9A-OH],30xmore
16,CC[C@H](C)[C@H](NC(=O)CN)C(=O)N[C@H]1CSSC[C@@H](C(=O)N[C@H](C(=O)N[C@@H](CC(N)=O)C(=O)O)[C@@H](C)O)NC(=O)[C@H](CCCNC(=N)N)NC(=O)[C@H](Cc2c[nH]cn2)NC(=O)[C@H](C)NC(=O)CNC(=O)[C@H](Cc2c[nH]c3cc(F)ccc23)NC(=O)[C@H](CC(=O)O)NC(=O)[C@H](CCC(N)=O)NC(=O)[C@H](Cc2c[nH]c3cc(F)ccc23)NC(=O)[C@H](C(C)C)NC1=O [+G/V4(6fW)/W7(6fW)H9A+N-OH],126xmore
17,CC[C@H](C)[C@H](NC(C)=O)C(=O)N[C@H]1CSSC[C@@H](C(=O)N[C@H](C(N)=O)[C@@H](C)O)NC(=O)[C@H](CCCNC(=N)N)NC(=O)[C@H](Cc2c[nH]cn2)NC(=O)[C@H](C)NC(=O)CNC(=O)[C@H](Cc2c[nH]c3ccccc23)NC(=O)[C@H](CC(=O)O)NC(=O)[C@H](CCC(N)=O)NC(=O)[C@H](Cc2ccc(O)cc2)NC(=O)[C@H](C(C)C)NC1=O [Ac-V4Y/H9A],14xmore
18,CC[C@H](C)[C@H](NC(C)=O)C(=O)N[C@H]1CSSC[C@@H](C(=O)N[C@H](C(=O)O)[C@@H](C)O)NC(=O)[C@H](CCCNC(=N)N)NC(=O)[C@H](Cc2c[nH]cn2)NC(=O)[C@H](C)NC(=O)CNC(=O)[C@H](Cc2c[nH]c3ccccc23)NC(=O)[C@H](CC(=O)O)NC(=O)[C@H](CCC(N)=O)NC(=O)[C@H](Cc2ccc(C(=O)c3ccccc3)cc2)NC(=O)[C@H](C(C)C)NC1=O [Ac-V4(Bpa)/H9A-OH],49xmore
19,CC[C@H](C)[C@H](NC(C)=O)C(=O)N[C@H]1CSSC[C@@H](C(=O)N[C@H](C(=O)O)[C@@H](C)O)NC(=O)[C@H](CCCNC(=N)N)NC(=O)[C@H](Cc2c[nH]cn2)NC(=O)[C@H](C)NC(=O)CNC(=O)[C@H](Cc2c[nH]c3ccccc23)NC(=O)[C@H](CC(=O)O)NC(=O)[C@H](CCC(N)=O)NC(=O)[C@H](C2Cc3ccccc3C2)NC(=O)[C@H](C(C)C)NC1=O [Ac-V42Igl/H9A-OH],37xmore
